IC50 data for 15 compounds are collected here from patent US20260083708A1, “IL-17 MODULATORS AND USES THEREOF” (NNOCARE PHARMA INC., priority 2024, published 2026).

The subject of experiment [1] is IL-17AF-induced IL-17 signaling pathway. Nature of the experiment: Inhibition of IL-17AF-induced IL-17 signaling pathway. It is filed as cell-based. The conditions noted are these: Homo sapiens; IL-17AF used instead of IL-17AA; read-out: IC50 for Inhibiting IL-AF Signaling. Summed up: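 HEK293-derived HEK-Blue IL-17 cells (IL-17RA/RC, ACT1, NF-κB/AP-1-driven SEAP) preincubated 1 hour at 37° C with serially diluted compound from 10 μM, then stimulated with IL-17AF for 20 hours. SEAP read colorimetrically at 620 nm; IC50 from 4-parameter fit of % inhibition.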

The next experiment concerns the target T1, IL-17AA and IL-17RA (Homo sapiens, UniProt Q16552).
T1 construct: purchased Sino Biological 12047-H07B (IL-17AA); 10895-H02H (IL-17RA)
T1 sequence (Q16552 24-155): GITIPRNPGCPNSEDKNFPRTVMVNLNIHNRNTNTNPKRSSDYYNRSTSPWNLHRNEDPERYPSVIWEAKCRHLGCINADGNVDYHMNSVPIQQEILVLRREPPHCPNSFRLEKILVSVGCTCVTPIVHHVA
Kind of experiment: Competitive inhibition of human IL-17AA and IL-17RA binding (HTRF). The settings on record: recombinant IL-17AA (His-tag) and IL-17RA (hFc-tag); read-out: IC50 for Inhibiting IL-AA/IL-RA Binding. Put shortly:
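His-IL-17AA (1 nM) premixed 1 h with anti-His-Tb (0.4 nM), and Fc-IL-17RA (1 nM) with anti-IgG-d2 (1 μg/mL); these are pre-mix levels. Compounds, diluted from 10 μM, preincubated 2 h RT with IL-17AA mix; IL-17RA mix then added, 20 min. 665/615 ratio vs no-compound and no-IL-17AA controls; IC50 by 4-parameter fit.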
On the technique in general: TR-FRET usually uses a lanthanide donor and a delayed reading to cut background.

In experiment [2] the test system is IL-17AA-induced IL-17 signaling pathway. Kind of experiment: Inhibition of IL-17AA-induced IL-17 signaling pathway in HEK-Blue IL-17 reporter cells (SEAP). It is filed as cell-based. The conditions noted are these: Homo sapiens; HEK-Blue IL-17 cells, IL-17AA 2.5 ng/mL, 20 hours; read-out: IC50 for Inhibiting IL-AA Signaling. Summed up:
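HEK-Blue IL-17 cells (HEK293 expressing human IL-17RA/RC, ACT1 and NF-κB/AP-1-driven SEAP), 10,000/well, pre-incubated with compound (serial dilution from 10 μM) for 1 h at 37 °C, then stimulated with IL-17AA at 2.5 ng/mL final for 20 h. SEAP in supernatant read with Quanti-Blue at 620 nm; IC50 by 4-parameter fit.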

Take `COCC(=O)N[C@@H](c1nncn1CC1CC1)[C@@H](C)c1ccc(NC(=O)[C@@H](NC(=O)OCc2cc(C(F)F)on2)C(C2CC2)C2CC2)c(F)c1` [Compound 32, (5-(Difluoromethyl)isoxazol-3-yl)methyl ((S)-1,1-dicyclopropyl-3-((4-((1R,2S)-1-(4-(cyclopropylmethyl)-4H-1,2,4-triazol-3-yl)-1-(2-methoxyacetamido)propan-2-yl)-2-fluorophenyl)amino)-3-oxopropan-2-yl)carbamate]: the IC50 in experiment [1] was 8.6 nM; on IL-17AA and IL-17RA it was 2.8 nM; in experiment [2], 5.7 nM.
With `CCn1nccc1C(=O)N[C@H](C(=O)Nc1ccc([C@H](C)[C@@H](NC(=O)COC)c2nnc(C)n2CC2CC2)cc1F)C(C1CC1)C1CC1` [Compound 18, N-((S)-1,1-dicyclopropyl-3-((4-((1R,2S)-1-(4-(cyclopropylmethyl)-5-methyl-4H-1,2,4-triazol-3-yl)-1-(2-methoxyacetamido)propan-2-yl)-2-fluorophenyl)amino)-3-oxopropan-2-yl)-1-ethyl-1H-pyrazole-5-carboxamide], the IC50 in experiment [1] was 51 nM; on IL-17AA and IL-17RA it was 17 nM; in experiment [2], 14 nM.
As for `CCn1nccc1C(=O)N[C@H](C(=O)Nc1ccc([C@H](C)[C@@H](NC(=O)COC)c2nccnc2OC2CC2)cc1F)C(C1CC1)C1CC1` [Compound 27, N-((S)-1-((4-((1R,2S)-1-(3-cyclopropoxypyrazin-2-yl)-1-(2-methoxyacetamido)propan-2-yl)-2-fluorophenyl)amino)-3,3-dicyclopropyl-1-oxopropan-2-yl)-1-ethyl-1H-pyrazole-5-carboxamide], the IC50 in experiment [1] amounted to 102 nM; at IL-17AA and IL-17RA it was 27 nM; in experiment [2], 39 nM.
The matching figures for `CCn1nccc1C(=O)N[C@H](C(=O)Nc1ccc([C@H](C)[C@@H](NC(=O)COC)c2ncccc2CC2CC2)cc1F)C(C1CC1)C1CC1` [Compound 28, N-((S)-1,1-dicyclopropyl-3-((4-((1R,2S)-1-(3-(cyclopropylmethyl)pyridin-2-yl)-1-(2-methoxyacetamido)propan-2-yl)-2-fluorophenyl)amino)-3-oxopropan-2-yl)-1-ethyl-1H-pyrazole-5-carboxamide]: 24 nM, 7.8 nM and 8.4 nM.
For `CCC(=O)N[C@H](c1ncnn1CC1CC1)[C@@H](C)c1ccc(NC(=O)[C@@H](NC(=O)c2nonc2C)C(C2CC2)C2CC2)c(F)c1` [Compound 83, N-((S)-1,1-dicyclopropyl-3-((4-((1S,2S)-1-(1-(cyclopropylmethyl)-1H-1,2,4-triazol-5-yl)-1-propionamidopropan-2-yl)-2-fluorophenyl)amino)-3-oxopropan-2-yl)-4-methyl-1,2,5-oxadiazole-3-carboxamide], the IC50 in experiment [1] was 39 nM; at IL-17AA and IL-17RA, 21 nM; in experiment [2], 45 nM.
The matching figures for `CCc1nonc1C(=O)N[C@H](C(=O)Nc1ccc([C@H](C)[C@@H](NC(=O)[C@H](C)OC)c2nncn2CC2CC2)cc1F)C(C1CC1)C1CC1` [Compound 26, N-((S)-1,1-dicyclopropyl-3-((4-((1R,2S)-1-(4-(cyclopropylmethyl)-4H-1,2,4-triazol-3-yl)-1-((S)-2-methoxypropanamido)propan-2-yl)-2-fluorophenyl)amino)-3-oxopropan-2-yl)-4-ethyl-1,2,5-oxadiazole-3-carboxamide]: 4.5 nM, 0.8 nM and 2 nM.
For `CCn1nccc1C(=O)N[C@H](C(=O)Nc1ccc([C@H](C)[C@@H](NC(=O)COC)c2nnc(C3CCN3C)s2)cc1F)C(C1CC1)C1CC1` (stereo partly drawn) [Compound 59, N-((2S)-1,1-dicyclopropyl-3-((2-fluoro-4-((1R,2S)-1-(2-methoxyacetamido)-1-(5-(1-methylazetidin-2-yl)-1,3,4-thiadiazol-2-yl)propan-2-yl)phenyl)amino)-3-oxopropan-2-yl)-1-ethyl-1H-pyrazole-5-carboxamide], the IC50 is 1550 nM in experiment [1]; 235 nM at IL-17AA and IL-17RA; 946 nM in experiment [2].
`Cc1nonc1C(=O)N[C@H](C(=O)Nc1ccc([C@H](C)[C@@H](NC(=O)COC(F)F)c2ncnn2CC2CC2)cc1F)C(C1CC1)C1CC1` [Compound 65, N-((S)-1,1-dicyclopropyl-3-((4-((1R,2S)-1-(1-(cyclopropylmethyl)-1H-1,2,4-triazol-5-yl)-1-(2-(difluoromethoxy)acetamido)propan-2-yl)-2-fluorophenyl)amino)-3-oxopropan-2-yl)-4-methyl-1,2,5-oxadiazole-3-carboxamide]: the IC50 in experiment [1] stood at 3.6 nM; on IL-17AA and IL-17RA it was 0.9 nM; in experiment [2] it was 2.8 nM.
In the case of `CCC(=O)N[C@@H](c1ncnn1CC1CC1)[C@@H](C)c1ccc(NC(=O)[C@H](NC(=O)c2nonc2C)C(C2CC2)C2CC2)c(F)c1` [Compound 84, N-((R)-1,1-dicyclopropyl-3-((4-((1R,2S)-1-(1-(cyclopropylmethyl)-1H-1,2,4-triazol-5-yl)-1-propionamidopropan-2-yl)-2-fluorophenyl)amino)-3-oxopropan-2-yl)-4-methyl-1,2,5-oxadiazole-3-carboxamide], the IC50 was determined as 85 nM in experiment [1]; 31 nM on IL-17AA and IL-17RA; 63 nM in experiment [2].
For `CCC(=O)N[C@@H](c1ncn(CCNC2CC2)n1)[C@@H](C)c1ccc(NC(=O)[C@@H](NC(=O)c2nonc2C)C(C2CC2)C2CC2)c(F)c1` [Compound 80, N—((S)-1,1-dicyclopropyl-3-((4-((1R,2S)-1-(1-(2-(cyclopropylamino)ethyl)-1H-1,2,4-triazol-3-yl)-1-propionamidopropan-2-yl)-2-fluorophenyl)amino)-3-oxopropan-2-yl)-4-methyl-1,2,5-oxadiazole-3-carboxamide], the IC50 in experiment [1] amounted to 49 nM; on IL-17AA and IL-17RA it was 18 nM; in experiment [2], 32 nM.
Consider `COCC(=O)N[C@@H](c1ncnn1CCN(C)C)[C@@H](C)c1ccc(NC(=O)[C@@H](NC(=O)c2nonc2C)C(C2CC2)C2CC2)c(F)c1` [Compound 61, N-((S)-1,1-dicyclopropyl-3-((4-((1R,2S)-1-(1-(2-(dimethylamino)ethyl)-1H-1,2,4-triazol-5-yl)-1-(2-methoxyacetamido)propan-2-yl)-2-fluorophenyl)amino)-3-oxopropan-2-yl)-4-methyl-1,2,5-oxadiazole-3-carboxamide], for which the IC50 was determined as 74 nM in experiment [1]; 12 nM at IL-17AA and IL-17RA; 39 nM in experiment [2].
With `Cc1nonc1C(=O)N[C@H](C(=O)Nc1ccc([C@H](C)[C@@H](NC(=O)COC2CC2)c2ncnn2CC2CC2)cc1F)C(C1CC1)C1CC1` [Compound 60, N-((S)-1-((4-((1R,2S)-1-(2-cyclopropoxyacetamido)-1-(1-(cyclopropylmethyl)-1H-1,2,4-triazol-5-yl)propan-2-yl)-2-fluorophenyl)amino)-3,3-dicyclopropyl-1-oxopropan-2-yl)-4-methyl-1,2,5-oxadiazole-3-carboxamide], the IC50 stood at 3.9 nM in experiment [1]; 1.7 nM on IL-17AA and IL-17RA; 3.3 nM in experiment [2].
For the compound `CCn1nccc1C(=O)N[C@H](C(=O)Nc1ccc([C@H](C)[C@@H](NC(=O)COC)c2nncn2CC2CCOCC2)cc1F)C(C1CC1)C1CC1` [Compound 9, N-((S)-1,1-dicyclopropyl-3-((2-fluoro-4-((1R,2S)-1-(2-methoxyacetamido)-1-(4-((tetrahydro-2H-pyran-4-yl)methyl)-4H-1,2,4-triazol-3-yl)propan-2-yl)phenyl)amino)-3-oxopropan-2-yl)-1-ethyl-1H-pyrazole-5-carboxamide], the IC50 in experiment [1] was 133 nM; on IL-17AA and IL-17RA it was 16 nM; in experiment [2], 31 nM.
The matching figures for `CCn1nccc1C(=O)N[C@H](C(=O)Nc1ccc([C@H](C)[C@@H](NC(=O)COC)c2ncnn2CC2CC2)cc1F)C1CCCCCC1` [Compound 42, N-((S)-1-cycloheptyl-2-((4-((1R,2S)-1-(1-(cyclopropylmethyl)-1H-1,2,4-triazol-5-yl)-1-(2-methoxyacetamido)propan-2-yl)-2-fluorophenyl)amino)-2-oxoethyl)-1-ethyl-1H-pyrazole-5-carboxamide]: 11 nM, 4.9 nM and 5.1 nM.
As for `CCC(=O)N[C@@H](c1ncnn1CCNC1CC1)[C@@H](C)c1ccc(NC(=O)[C@@H](NC(=O)c2nonc2C)C(C2CC2)C2CC2)c(F)c1` [Compound 79, N-((S)-1,1-dicyclopropyl-3-((4-((1R,2S)-1-(1-(2-(cyclopropylamino)ethyl)-1H-1,2,4-triazol-5-yl)-1-propionamidopropan-2-yl)-2-fluorophenyl)amino)-3-oxopropan-2-yl)-4-methyl-1,2,5-oxadiazole-3-carboxamide], the IC50 was found to be 36 nM in experiment [1]; 6 nM on IL-17AA and IL-17RA; 19 nM in experiment [2].
